Source: patent US10765114B2, “4-amino-6-(pyridyl and 2-substitutedphenyl)-picolinates and 6-amino-2-(pyridyl and 2-substitutedphenyl)-pyrimidine-4-carboxylates and their use as herbicides” (Dow AgroSciences LLC, priority 2013, dated 2020)

The compounds below were run on Key Broadleaf Weed and Crop Species (assay: Post-Emergent Test II (Table 5)). Conditions: Abutilon theophrasti, post-emergence, 336 h, ABUTH: velvetleaf (Abutilon theophrasti), application rate 70 (kg ai/ha; footnote: g ai/ha), read-out: Visual Growth Reduction (%) 14 Days After Application ABUTH.
Format: in vivo
Method in brief: (§1)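 Plants grown in a greenhouse (~15 h photoperiod, 23-29° C day) to first or second true leaf stage were sprayed post-emergence at 187 L/ha with compound in acetone/DMSO-based aqueous spray containing crop oil concentrate and surfactant, applied at a high rate plus ½× to 1/16× serial rates. Injury was scored visually 14 days later, 0-100% versus untreated plants.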
`COC(=O)c1nc(-c2ccc(C(F)(F)F)nc2)cc(N)c1Cl` [Compound 4] gave a pest or weed control at 70 g/ha of 75 to 84%.

Same assay, conditions: Abutilon theophrasti, post-emergence, 336 h, ABUTH: velvetleaf (Abutilon theophrasti), application rate 140 (kg ai/ha; footnote: g ai/ha), read-out: Visual Growth Reduction (%) 14 Days After Application ABUTH
For `COC(=O)c1nc(-c2ccc(C(F)(F)F)nc2)cc(N)c1Cl` [Compound 4], the pest or weed control at 140 g/ha was 75 to 84%.

Same assay, conditions: Amaranthus retroflexus, post-emergence, 336 h, AMARE: redroot pigweed (Amaranthus retroflexus), application rate 70 (kg ai/ha; footnote: g ai/ha), read-out: Visual Growth Reduction (%) 14 Days After Application AMARE
Work on `COC(=O)c1nc(-c2ccc(C(F)(F)F)nc2)cc(N)c1Cl` [Compound 4] yielded a pest or weed control at 70 g/ha of 85 to 94%.

Same assay, conditions: Amaranthus retroflexus, post-emergence, 336 h, AMARE: redroot pigweed (Amaranthus retroflexus), application rate 140 (kg ai/ha; footnote: g ai/ha), read-out: Visual Growth Reduction (%) 14 Days After Application AMARE
`COC(=O)c1nc(-c2ccc(C(F)(F)F)nc2)cc(N)c1Cl` [Compound 4] was tested, and the pest or weed control at 140 g/ha was 95 to 100%.

Same assay, conditions: Brassica napus, post-emergence, 336 h, BRSSS: oilseed rape, canola (Brassica napus), application rate 70 (kg ai/ha; footnote: g ai/ha), read-out: Visual Growth Reduction (%) 14 Days After Application BRSSS
`COC(=O)c1nc(-c2ccc(C(F)(F)F)nc2)cc(N)c1Cl` [Compound 4] was tested, and the pest or weed control at 70 g/ha was 30 to 44%.

Same assay, conditions: Brassica napus, post-emergence, 336 h, BRSSS: oilseed rape, canola (Brassica napus), application rate 140 (kg ai/ha; footnote: g ai/ha), read-out: Visual Growth Reduction (%) 14 Days After Application BRSSS
`COC(=O)c1nc(-c2ccc(C(F)(F)F)nc2)cc(N)c1Cl` [Compound 4] was tested, and the pest or weed control at 140 g/ha was 60 to 74%.

Same assay, conditions: Chenopodium album, post-emergence, 336 h, CHEAL: lambsquarters (Chenopodium album), application rate 70 (kg ai/ha; footnote: g ai/ha), read-out: Visual Growth Reduction (%) 14 Days After Application CHEAL
Compound `COC(=O)c1nc(-c2ccc(C(F)(F)F)nc2)cc(N)c1Cl` [Compound 4] has a pest or weed control at 70 g/ha of 75 to 84%.

Same assay, conditions: Chenopodium album, post-emergence, 336 h, CHEAL: lambsquarters (Chenopodium album), application rate 140 (kg ai/ha; footnote: g ai/ha), read-out: Visual Growth Reduction (%) 14 Days After Application CHEAL
Work on `COC(=O)c1nc(-c2ccc(C(F)(F)F)nc2)cc(N)c1Cl` [Compound 4] yielded a pest or weed control at 140 g/ha of 85 to 94%.

Same assay, conditions: Euphorbia heterophylla, post-emergence, 336 h, EPHHL: wild poinsettia (Euphorbia heterophylla), application rate 70 (kg ai/ha; footnote: g ai/ha), read-out: Visual Growth Reduction (%) 14 Days After Application EPHHL
Compound `COC(=O)c1nc(-c2ccc(C(F)(F)F)nc2)cc(N)c1Cl` [Compound 4] has a pest or weed control at 70 g/ha of 75 to 84%.

Same assay, conditions: Euphorbia heterophylla, post-emergence, 336 h, EPHHL: wild poinsettia (Euphorbia heterophylla), application rate 140 (kg ai/ha; footnote: g ai/ha), read-out: Visual Growth Reduction (%) 14 Days After Application EPHHL
In the case of `COC(=O)c1nc(-c2ccc(C(F)(F)F)nc2)cc(N)c1Cl` [Compound 4], the pest or weed control at 140 g/ha is reported as 85 to 94%.

Same assay, conditions: Helianthus annuus, post-emergence, 336 h, HELAN: sunflower (Helianthus annuus), application rate 70 (kg ai/ha; footnote: g ai/ha), read-out: Visual Growth Reduction (%) 14 Days After Application HELAN
In the case of `COC(=O)c1nc(-c2ccc(C(F)(F)F)nc2)cc(N)c1Cl` [Compound 4], the pest or weed control at 70 g/ha is reported as 60 to 74%.

Same assay, conditions: Helianthus annuus, post-emergence, 336 h, HELAN: sunflower (Helianthus annuus), application rate 140 (kg ai/ha; footnote: g ai/ha), read-out: Visual Growth Reduction (%) 14 Days After Application HELAN
In the case of `COC(=O)c1nc(-c2ccc(C(F)(F)F)nc2)cc(N)c1Cl` [Compound 4], the pest or weed control at 140 g/ha is reported as 75 to 84%.

Same assay, conditions: Viola tricolor, post-emergence, 336 h, VIOTR: wild pansy (Viola tricolor), application rate 70 (kg ai/ha; footnote: g ai/ha), read-out: Visual Growth Reduction (%) 14 Days After Application VIOTR
For `COC(=O)c1nc(-c2ccc(C(F)(F)F)nc2)cc(N)c1Cl` [Compound 4], the pest or weed control at 70 g/ha was 0 to 29%.

Same assay, conditions: Viola tricolor, post-emergence, 336 h, VIOTR: wild pansy (Viola tricolor), application rate 140 (kg ai/ha; footnote: g ai/ha), read-out: Visual Growth Reduction (%) 14 Days After Application VIOTR
`COC(=O)c1nc(-c2ccc(C(F)(F)F)nc2)cc(N)c1Cl` [Compound 4] gave a pest or weed control at 140 g/ha of 0 to 29%.

Each compound was assayed on Key Grass and Sedge Weeds as well as Grass Crops (assay: Post-Emergent Test II (Table 6)). Conditions: post-emergence, 336 h, CYPSS, 70 g ai/ha, 14 days after application, read-out: Visual Growth Reduction (%) 14 Days After Application CYPSS.
Format: in vivo
Method in brief: as §1
For `COC(=O)c1nc(-c2ccc(C(F)(F)F)nc2)cc(N)c1Cl` [Compound 4], the pest or weed control at 70 g/ha was 60 to 74%.

Same assay, conditions: post-emergence, 336 h, CYPSS, 140 g ai/ha, 14 days after application, read-out: Visual Growth Reduction (%) 14 Days After Application CYPSS
`COC(=O)c1nc(-c2ccc(C(F)(F)F)nc2)cc(N)c1Cl` [Compound 4] showed a pest or weed control at 140 g/ha of 60 to 74%.

Same assay, conditions: post-emergence, 336 h, DIGSA: crabgrass (Digitaria sanguinalis), 70 g ai/ha, 14 days after application, read-out: Visual Growth Reduction (%) 14 Days After Application DIGSA
Compound `COC(=O)c1nc(-c2ccc(C(F)(F)F)nc2)cc(N)c1Cl` [Compound 4] has a pest or weed control at 70 g/ha of 0 to 29%.

Same assay, conditions: post-emergence, 336 h, DIGSA: crabgrass (Digitaria sanguinalis), 140 g ai/ha, 14 days after application, read-out: Visual Growth Reduction (%) 14 Days After Application DIGSA
`COC(=O)c1nc(-c2ccc(C(F)(F)F)nc2)cc(N)c1Cl` [Compound 4] gave a pest or weed control at 140 g/ha of 0 to 29%.

Same assay, conditions: post-emergence, 336 h, ECHSS, 70 g ai/ha, 14 days after application, read-out: Visual Growth Reduction (%) 14 Days After Application ECHSS
`COC(=O)c1nc(-c2ccc(C(F)(F)F)nc2)cc(N)c1Cl` [Compound 4] gave a pest or weed control at 70 g/ha of 30 to 44%.

Same assay, conditions: post-emergence, 336 h, ECHSS, 140 g ai/ha, 14 days after application, read-out: Visual Growth Reduction (%) 14 Days After Application ECHSS
With `COC(=O)c1nc(-c2ccc(C(F)(F)F)nc2)cc(N)c1Cl` [Compound 4] the pest or weed control at 140 g/ha was 75 to 84%.

Same assay, conditions: post-emergence, 336 h, ORYSS (crop), 70 g ai/ha, 14 days after application, read-out: Visual Growth Reduction (%) 14 Days After Application ORYSS
`COC(=O)c1nc(-c2ccc(C(F)(F)F)nc2)cc(N)c1Cl` [Compound 4] gave a pest or weed control at 70 g/ha of 0 to 29%.

Same assay, conditions: post-emergence, 336 h, ORYSS (crop), 140 g ai/ha, 14 days after application, read-out: Visual Growth Reduction (%) 14 Days After Application ORYSS
`COC(=O)c1nc(-c2ccc(C(F)(F)F)nc2)cc(N)c1Cl` [Compound 4] showed a pest or weed control at 140 g/ha of 0 to 29%.

Same assay, conditions: post-emergence, 336 h, SETFA: giant foxtail (Setaria faberi), 70 g ai/ha, 14 days after application, read-out: Visual Growth Reduction (%) 14 Days After Application SETFA
With `COC(=O)c1nc(-c2ccc(C(F)(F)F)nc2)cc(N)c1Cl` [Compound 4] the pest or weed control at 70 g/ha was 0 to 29%.

Same assay, conditions: post-emergence, 336 h, SETFA: giant foxtail (Setaria faberi), 140 g ai/ha, 14 days after application, read-out: Visual Growth Reduction (%) 14 Days After Application SETFA
Work on `COC(=O)c1nc(-c2ccc(C(F)(F)F)nc2)cc(N)c1Cl` [Compound 4] yielded a pest or weed control at 140 g/ha of 0 to 29%.

Same assay, conditions: post-emergence, 336 h, SORVU: grain sorghum (Sorghum vulgare), 70 g ai/ha, 14 days after application, read-out: Visual Growth Reduction (%) 14 Days After Application SORVU
Compound `COC(=O)c1nc(-c2ccc(C(F)(F)F)nc2)cc(N)c1Cl` [Compound 4] has a pest or weed control at 70 g/ha of 45 to 59%.

Same assay, conditions: post-emergence, 336 h, SORVU: grain sorghum (Sorghum vulgare), 140 g ai/ha, 14 days after application, read-out: Visual Growth Reduction (%) 14 Days After Application SORVU
With `COC(=O)c1nc(-c2ccc(C(F)(F)F)nc2)cc(N)c1Cl` [Compound 4] the pest or weed control at 140 g/ha was 60 to 74%.

Same assay, conditions: post-emergence, 336 h, TRZSS (crop), 70 g ai/ha, 14 days after application, read-out: Visual Growth Reduction (%) 14 Days After Application TRZSS
`COC(=O)c1nc(-c2ccc(C(F)(F)F)nc2)cc(N)c1Cl` [Compound 4] gave a pest or weed control at 70 g/ha of 0 to 29%.

Same assay, conditions: post-emergence, 336 h, TRZSS (crop), 140 g ai/ha, 14 days after application, read-out: Visual Growth Reduction (%) 14 Days After Application TRZSS
`COC(=O)c1nc(-c2ccc(C(F)(F)F)nc2)cc(N)c1Cl` [Compound 4] was tested, and the pest or weed control at 140 g/ha was 0 to 29%.

Same assay, conditions: post-emergence, 336 h, ZEAMX: maize, corn (Zea mays), 70 g ai/ha, 14 days after application, read-out: Visual Growth Reduction (%) 14 Days After Application ZEAMX
With `COC(=O)c1nc(-c2ccc(C(F)(F)F)nc2)cc(N)c1Cl` [Compound 4] the pest or weed control at 70 g/ha was 0 to 29%.

Same assay, conditions: post-emergence, 336 h, ZEAMX: maize, corn (Zea mays), 140 g ai/ha, 14 days after application, read-out: Visual Growth Reduction (%) 14 Days After Application ZEAMX
`COC(=O)c1nc(-c2ccc(C(F)(F)F)nc2)cc(N)c1Cl` [Compound 4] was tested, and the pest or weed control at 140 g/ha was 0 to 29%.
